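How tested: cells in 96-well plates exposed to compound for 48 hours at five concentrations. Here, GI50 denotes the concentration required for 50% inhibition of growth.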 Activity calls are given as the source filed them. Rule as the data show it: active = GI50 up to about 1.1 µM and inactive = higher.
What was measured:
Test in all cases: NCI tumour cell line growth inhibition, 48 h
[1] = system: NCI-H226
[2] = system: 786-0
[3] = system: SNB-19
[4] = system: BT-549
[5] = system: SW-620
[6] = system: MDA-MB-231
[7] = system: CCRF-CEM
[8] = system: HCT-15
[9] = system: HOP-92
[10] = system: A549
[11] = system: NCI-H522
[12] = system: KM12
[13] = system: ACHN
[14] = system: EKVX
[15] = system: A498
[16] = system: PC-3
[17] = system: CAKI-1
[18] = system: SK-OV-3
[19] = system: SF-539
[20] = system: NCI/ADR-RES

SMILES | GI50 [1] | GI50 [2] | GI50 [3] | GI50 [4] | GI50 [5] | GI50 [6] | GI50 [7] | GI50 [8] [µM] | GI50 [9] | GI50 [10] | GI50 [11] | GI50 [12] | GI50 [13] | GI50 [14] | GI50 [15] | GI50 [16] | GI50 [17] | GI50 [18] | GI50 [19] | GI50 [20]
CCOC(=O)c1c(SCCN2CCOCC2)n(-c2ccccc2)c(=S)n(-c2ccccc2)c1=O | 38.5 µM (inactive) | 21.2 µM (inactive) | > 100 µM (inactive) | 39.3 µM (inactive) | 21.1 µM (inactive) | 44 µM (inactive) | 30.1 µM (inactive) | 20 | 51.6 µM (inactive) | > 100 µM (inactive) | 43.7 µM (inactive) | > 100 µM (inactive) | > 100 µM (inactive) | – | – | – | – | – | – | –
Cn1nc(-c2ccccc2)c2c(-c3ccccc3)c3cc(Cl)ccc3nc21 | > 100 µM (inactive) | > 100 µM (inactive) | > 100 µM (inactive) | > 100 µM (inactive) | > 100 µM (inactive) | > 100 µM (inactive) | 0.0311 µM (active) | 12.7 | – | > 100 µM (inactive) | 45 µM (inactive) | > 100 µM (inactive) | > 100 µM (inactive) | > 100 µM (inactive) | > 100 µM (inactive) | > 100 µM (inactive) | > 100 µM (inactive) | > 100 µM (inactive) | – | –
CCOC(=O)C1(C(=O)OCC)C[C@]23OCCC(=O)[C@H]2[C@H]2C(=O)OC(C)(C)O[C@]23C1 | – | > 100 µM (inactive) | > 100 µM (inactive) | – | > 100 µM (inactive) | > 100 µM (inactive) | > 100 µM (inactive) | > 100 | > 100 µM (inactive) | > 100 µM (inactive) | > 100 µM (inactive) | > 100 µM (inactive) | > 100 µM (inactive) | > 100 µM (inactive) | > 100 µM (inactive) | > 100 µM (inactive) | > 100 µM (inactive) | – | > 100 µM (inactive) | > 100 µM (inactive)
CC1(C)CC(=O)/C(=C/C2CCNC2=S)C(=O)N1 (stereo not given) | > 100 µM (inactive) | > 100 µM (inactive) | > 100 µM (inactive) | – | > 100 µM (inactive) | > 100 µM (inactive) | > 100 µM (inactive) | > 100 | > 100 µM (inactive) | > 100 µM (inactive) | > 100 µM (inactive) | > 100 µM (inactive) | > 100 µM (inactive) | > 100 µM (inactive) | > 100 µM (inactive) | > 100 µM (inactive) | > 100 µM (inactive) | > 100 µM (inactive) | > 100 µM (inactive) | > 100 µM (inactive)
COC(=O)C(CSSC[C@H](N/C(C)=C/C(C)=O)C(=O)OC)N/C(C)=C/C(C)=O (stereo not given in full) | > 100 µM (inactive) | 32.2 µM (inactive) | > 100 µM (inactive) | – | 34.1 µM (inactive) | > 100 µM (inactive) | 26.4 µM (inactive) | – | 32.5 µM (inactive) | 99.8 µM (inactive) | 13.9 µM (inactive) | 28.8 µM (inactive) | < 0.01 µM (active) | 16.4 µM (inactive) | > 100 µM (inactive) | 54.1 µM (inactive) | 17.3 µM (inactive) | > 100 µM (inactive) | 53 µM (inactive) | > 100 µM (inactive)
COC(=O)c1ccc2c(c1)CC1(C2)Cc2cc3c(cc2C1)CCC3 | – | > 100 µM (inactive) | > 100 µM (inactive) | – | > 100 µM (inactive) | > 100 µM (inactive) | > 100 µM (inactive) | > 100 | > 100 µM (inactive) | > 100 µM (inactive) | > 100 µM (inactive) | – | > 100 µM (inactive) | > 100 µM (inactive) | > 100 µM (inactive) | > 100 µM (inactive) | > 100 µM (inactive) | > 100 µM (inactive) | > 100 µM (inactive) | > 100 µM (inactive)
CCC1=CC(OCc2ccccc2)C(CCN(Cc2ccccc2)C(=O)OCc2ccccc2)C1 (stereo not given) | 15.7 µM (inactive) | 19.3 µM (inactive) | 14.8 µM (inactive) | – | 18.4 µM (inactive) | 18.5 µM (inactive) | – | 13.6 | 13.5 µM (inactive) | 15.5 µM (inactive) | 11.7 µM (inactive) | 15.6 µM (inactive) | 15.3 µM (inactive) | 16.1 µM (inactive) | 16 µM (inactive) | 14.3 µM (inactive) | 14.7 µM (inactive) | 20 µM (inactive) | 20.6 µM (inactive) | 15.9 µM (inactive)
N#C/C(=C\c1cc(O)ccc1O)C(N)=O | 34 µM (inactive) | 29.4 µM (inactive) | 57.8 µM (inactive) | – | 49.9 µM (inactive) | – | 21.5 µM (inactive) | 44.2 | 34.4 µM (inactive) | 78.5 µM (inactive) | 18.2 µM (inactive) | 46.1 µM (inactive) | 26.8 µM (inactive) | 33.1 µM (inactive) | 41 µM (inactive) | – | 46.2 µM (inactive) | 67.6 µM (inactive) | 50.7 µM (inactive) | –
N#Cc1nc(C#N)c(NC(=O)c2ccccc2C(=O)O)[nH]1 | > 100 µM (inactive) | > 100 µM (inactive) | > 100 µM (inactive) | – | > 100 µM (inactive) | > 100 µM (inactive) | > 100 µM (inactive) | – | > 100 µM (inactive) | > 100 µM (inactive) | > 100 µM (inactive) | > 100 µM (inactive) | > 100 µM (inactive) | > 100 µM (inactive) | > 100 µM (inactive) | > 100 µM (inactive) | > 100 µM (inactive) | > 100 µM (inactive) | > 100 µM (inactive) | > 100 µM (inactive)
O=C(O)CCNCCCCNCCC(=O)O | > 100 µM (inactive) | > 100 µM (inactive) | > 100 µM (inactive) | – | > 100 µM (inactive) | – | > 100 µM (inactive) | > 100 | > 100 µM (inactive) | > 100 µM (inactive) | > 100 µM (inactive) | > 100 µM (inactive) | > 100 µM (inactive) | > 100 µM (inactive) | > 100 µM (inactive) | – | > 100 µM (inactive) | > 100 µM (inactive) | > 100 µM (inactive) | –
C=CCOC(C)n1c(C)c(Br)c(=O)[nH]c1=O (stereo not given) | > 100 µM (inactive) | > 100 µM (inactive) | > 100 µM (inactive) | – | > 100 µM (inactive) | – | > 100 µM (inactive) | > 100 | > 100 µM (inactive) | > 100 µM (inactive) | > 100 µM (inactive) | > 100 µM (inactive) | > 100 µM (inactive) | > 100 µM (inactive) | > 100 µM (inactive) | – | > 100 µM (inactive) | 65.2 µM (inactive) | > 100 µM (inactive) | –
COc1ccc(Oc2cccc(C3C4C(=O)N(c5ccc(C)c(Cl)c5)C(=O)C4ON3C(C(N)=O)c3ccccc3)c2)cc1 (stereo not given) | 15.6 µM (inactive) | 16.1 µM (inactive) | 24 µM (inactive) | – | 20.9 µM (inactive) | 34 µM (inactive) | 14 µM (inactive) | 8.39 | 24 µM (inactive) | 20.9 µM (inactive) | 10.6 µM (inactive) | 18 µM (inactive) | 23.5 µM (inactive) | 10.4 µM (inactive) | 38.5 µM (inactive) | 18.9 µM (inactive) | 21 µM (inactive) | > 50 µM (inactive) | 10.4 µM (inactive) | –
COC1=CC(c2ccc(Br)[nH]2)=N/C1=C/NCC(C)C | – | 1.55 µM (inactive) | 3.6 µM (inactive) | – | – | 2.02 µM (inactive) | 0.581 µM (active) | 1.3 | 1.32 µM (inactive) | 1.46 µM (inactive) | 1.49 µM (inactive) | 1.26 µM (inactive) | 1.21 µM (inactive) | 0.368 µM (active) | 2.23 µM (inactive) | 1.47 µM (inactive) | 2.36 µM (inactive) | 2.53 µM (inactive) | 2.06 µM (inactive) | –
CCOc1ccnc2c(OC)c(C)c3nc4ccccc4nc3c12 | > 100 µM (inactive) | > 100 µM (inactive) | > 100 µM (inactive) | – | > 100 µM (inactive) | > 100 µM (inactive) | > 100 µM (inactive) | 12.8 | 93.8 µM (inactive) | > 100 µM (inactive) | > 100 µM (inactive) | 86.5 µM (inactive) | > 100 µM (inactive) | > 100 µM (inactive) | > 100 µM (inactive) | 89.3 µM (inactive) | > 100 µM (inactive) | > 100 µM (inactive) | > 100 µM (inactive) | 71.1 µM (inactive)
CC(=O)OCC1OC(OC2CC3C(C)(C)C(O)CC[C@]3(C)C3CCC45CC4(CC[C@H]5C(C)CC(O)C4OC4(C)C)[C@]23C)C(O)C(O)C1O (stereo not given in full) | 8.95 µM (inactive) | 7.57 µM (inactive) | 8 µM (inactive) | – | 7.98 µM (inactive) | – | 1.56 µM (inactive) | 8.45 | 5.06 µM (inactive) | 10.6 µM (inactive) | 4.89 µM (inactive) | 8.04 µM (inactive) | 8.63 µM (inactive) | 8.61 µM (inactive) | 34.5 µM (inactive) | – | 8.87 µM (inactive) | 8.2 µM (inactive) | 7.98 µM (inactive) | –
COC(=O)C1=C(C(=O)OC)C2(CCCCCC2=O)OC1=O (stereo not given) | > 100 µM (inactive) | > 100 µM (inactive) | > 100 µM (inactive) | – | > 100 µM (inactive) | – | > 100 µM (inactive) | > 100 | > 100 µM (inactive) | > 100 µM (inactive) | > 100 µM (inactive) | > 100 µM (inactive) | > 100 µM (inactive) | > 100 µM (inactive) | > 100 µM (inactive) | – | > 100 µM (inactive) | > 100 µM (inactive) | > 100 µM (inactive) | –

Reference: ChEMBL document CHEMBL1201862, “PubChem BioAssay data set” (2004)
